In data set [1] the test system is female Hartley guinea pigs. The data set is described as follows: Adjuvant test in oily phase: specific serum antibody level to ovalbumin. The data set is classed as in vivo, guinea pig.
Experimental: In these tests, the growth of the specific antibody level of a given antigen when the latter is injected, with or without the adjuvant compound according to the invention, in the midst of a water and oil emulsion was followed.
(§1) The tests were carried out on female Hartley guinea pigs of 350 g. The administration was done by intradermal injection in the plantar pad of each of the rear paws. The ovalbumin (constituting the antigen) in the dose of 0.5 mg was prepared in 0.1 ml of an emulsion of saline isotonic solution, in an oily phase constituted either by the Freund incomplete adjuvant (FIA), or by the Freund complete adjuvant (FCA) formed by the FIA to which is added 0.1 mg of whole cells of Mycobacterium smegmatis. The compound according to the invention was administered in the dose of 0.1 mg added in the emulsion containing the FIA.
Twenty one days after the injection, the animals were bled. On the serum collected, the specific antibody content of the ovalbumin was measured by precipitation of the antibody-antigen complex in the equivalence zone. The amount of protein nitrogen contained in this precipitate was evaluated according to the Folin method. These values express the amounts, in micrograms, of nitrogen precipitable by the antigen, per ml of serum.
For data set [2], the system named is female Hartley guinea pigs. The data set is described as follows: Adjuvant test in oily phase: delayed hypersensitivity cutaneous test to ovalbumin. The data set is classed as in vivo, guinea pig.
Experimental: as §1
Eighteen days after this immunisation, possible reactions of delayed hypersensibility to the antigen were sought by injecting by the intradermal route 0.005 mg of ovalbumin into the side of the animals, and the reaction at the point of injection was observed 48 hours later. The diameter in mm of the thus provoked reaction was measured.
For another data set, the system named is mice. Nature of the data set: Toxicity by intravenous injection in mice. Conditions: mice aged two months. The data set is classed as in vivo. An excerpt: The toxicity of the product according to the invention was studied by intravenous injection in mice aged two months.
For the next data set, the system named is rabbits. The data set is described as follows: Pyrogenicity on rabbits (French Pharmacopea protocol). It is filed as in vivo. Conditions: for Rise in temperature °C.: individual animals (batch of three), listed as product according to the invention. The method, then: The pyrogenic effect of the product according to the invention on rabbits was studied, following the protocol of the French Pharmacopea, 9e edition, II-235. Each test was carried out on a batch of three rabbits. The administration was first done by the subcutaneous route, then by the intravenous route. The results of these tests, that is to say the increase in temperature in the treated animals, were as follows: […]

Molecules are shown by their SMILES. Values joined by “and” are separate entries in the source; they are usually repeats but may differ in a detail not shown here. Identical values can stand only once.

`CC(=O)NC1C(Oc2ccc(N)cc2)OC(CO)C(O)C1O[C@H](C)C(=O)N[C@@H](C)C(=O)N[C@H](CCC(=O)O)C(N)=O` (stereo partly drawn) [p-amino-phenyl-Mur-NAc-L-Ala-D-iso-Gln, 2-(p-amino-phenyl-2-acetamido-2-deoxy-3-O-D-glucopyranosyl)-D-propionyl-L-alanyl-D-isoglutamine]: the “Effect on level of antibodies to the administered antigen (in words)” value in data set [1] (administered in oily emulsion) is “distinctly facilitates the increase in the level of antibodies”. The “Seric antibodies (nitrogen precipitable by the antigen per ml of serum)” value in data set [1] (guinea pigs, ovalbumin 0.5 mg intradermal in water-in-oil emulsion, adjuvant 100 μg, serum 21 days after injection, average values) amounted to 3500 µg/mL. The “Delayed-type hypersensitivity reaction to the antigen (in words)” value in data set [2] (administered in oily emulsion) is listed as “induces a hypersensitivity reaction of the delayed type”. Also, in data set [2] (guinea pigs, challenge 0.005 mg ovalbumin intradermal 18 days after immunisation, read 48 hours later, adjuvant 100 μg), the “Cutaneous test diameter in mm” value came out at 19.5±4.5 mm. Also, the “lethal dose (LD50)” value in the data set on mice is given as “very much higher than that of the dosage at which the product manifests its adjuvant properties”. The “Pyrogenicity (in words)” value with rabbits (doses where adjuvant properties are manifested) was “apyrogenic”. For the same compound, the “Rise in temperature °C.” value in the data set with rabbits (intravenous, 1.0 mg/kg) is 0 °C and 0.4 °C and 0.6 °C; with rabbits (sub-cutaneous, 0.100 mg/kg, 0.1 mg/kg), 0 °C (2×) and 0.1 °C; with rabbits (sub-cutaneous, 0.500 mg/kg, 0.5 mg/kg), 0 °C and 0.2 °C and 0.1 °C.

For the origin of these results see patent US4185089A, “Immunological adjuvant constituted by the p-amino-phenyl derivative of N-acetyl-muramyl-L-alanyl-D-isoglutamine” (Agence Nationale de Valorisation de la Recherche (ANVAR), priority 1976, dated 1980).
